Assay results from paper PMC11233931, “Remodeling tumor‐associated macrophage for anti‐cancer effects by rational design of irreversible inhibition of mitogen‐activated protein kinase‐activated protein kinase 2” (MedComm, 2024).

How the values were obtained:
Assay in all cases: Eurofins kinase selectivity profile against 380 other human recombinant kinases (Table S2)
Format in all cases: biochemical
[1] = target: T1, 380 human recombinant protein kinases (Homo sapiens, UniProt P54762); conditions: EphB1(h), read-out: Inhibition rate
T1 construct: purchased Eurofins (Celle Lévescault)
T1 sequence (P54762 18-984): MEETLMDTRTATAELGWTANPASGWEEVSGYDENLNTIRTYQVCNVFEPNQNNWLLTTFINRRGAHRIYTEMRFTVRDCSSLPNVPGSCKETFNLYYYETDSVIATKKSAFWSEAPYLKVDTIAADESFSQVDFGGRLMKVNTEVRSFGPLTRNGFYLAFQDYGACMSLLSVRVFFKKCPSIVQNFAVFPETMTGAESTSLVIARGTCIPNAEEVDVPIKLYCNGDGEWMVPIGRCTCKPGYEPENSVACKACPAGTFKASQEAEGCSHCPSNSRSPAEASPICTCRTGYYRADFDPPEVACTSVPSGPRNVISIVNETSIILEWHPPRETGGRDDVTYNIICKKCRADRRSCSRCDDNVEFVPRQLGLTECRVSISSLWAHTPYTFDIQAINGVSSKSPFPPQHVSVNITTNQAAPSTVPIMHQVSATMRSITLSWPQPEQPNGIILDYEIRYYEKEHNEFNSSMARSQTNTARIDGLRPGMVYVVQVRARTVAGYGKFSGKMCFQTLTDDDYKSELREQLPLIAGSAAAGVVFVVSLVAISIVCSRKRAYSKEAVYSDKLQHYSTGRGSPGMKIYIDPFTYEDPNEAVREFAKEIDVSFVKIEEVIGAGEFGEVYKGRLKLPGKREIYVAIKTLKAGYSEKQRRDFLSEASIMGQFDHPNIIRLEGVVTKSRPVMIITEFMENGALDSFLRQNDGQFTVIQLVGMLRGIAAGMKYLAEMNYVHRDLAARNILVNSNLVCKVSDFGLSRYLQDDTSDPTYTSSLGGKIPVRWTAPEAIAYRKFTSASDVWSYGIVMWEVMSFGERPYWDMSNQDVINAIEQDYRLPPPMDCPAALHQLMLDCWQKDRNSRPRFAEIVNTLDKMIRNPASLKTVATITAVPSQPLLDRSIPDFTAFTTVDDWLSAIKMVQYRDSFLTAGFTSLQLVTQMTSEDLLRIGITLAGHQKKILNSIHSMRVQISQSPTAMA
Summary of the method: (§1)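 Off-target profiling: one compound assayed by a commercial provider over 380 recombinant human protein kinases at various concentrations.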

[2] = target: T2, 380 human recombinant protein kinases (Homo sapiens, UniProt O96017); conditions: CHK2(h), read-out: Inhibition rate
T2 construct: purchased Eurofins (Celle Lévescault)
Summary of the method: as §1

[3] = target: T3, 380 human recombinant protein kinases (Homo sapiens, UniProt P23458); conditions: JAK1(h), read-out: Inhibition rate
T3 construct: purchased Eurofins (Celle Lévescault)
T3 sequence (P23458 whole entry): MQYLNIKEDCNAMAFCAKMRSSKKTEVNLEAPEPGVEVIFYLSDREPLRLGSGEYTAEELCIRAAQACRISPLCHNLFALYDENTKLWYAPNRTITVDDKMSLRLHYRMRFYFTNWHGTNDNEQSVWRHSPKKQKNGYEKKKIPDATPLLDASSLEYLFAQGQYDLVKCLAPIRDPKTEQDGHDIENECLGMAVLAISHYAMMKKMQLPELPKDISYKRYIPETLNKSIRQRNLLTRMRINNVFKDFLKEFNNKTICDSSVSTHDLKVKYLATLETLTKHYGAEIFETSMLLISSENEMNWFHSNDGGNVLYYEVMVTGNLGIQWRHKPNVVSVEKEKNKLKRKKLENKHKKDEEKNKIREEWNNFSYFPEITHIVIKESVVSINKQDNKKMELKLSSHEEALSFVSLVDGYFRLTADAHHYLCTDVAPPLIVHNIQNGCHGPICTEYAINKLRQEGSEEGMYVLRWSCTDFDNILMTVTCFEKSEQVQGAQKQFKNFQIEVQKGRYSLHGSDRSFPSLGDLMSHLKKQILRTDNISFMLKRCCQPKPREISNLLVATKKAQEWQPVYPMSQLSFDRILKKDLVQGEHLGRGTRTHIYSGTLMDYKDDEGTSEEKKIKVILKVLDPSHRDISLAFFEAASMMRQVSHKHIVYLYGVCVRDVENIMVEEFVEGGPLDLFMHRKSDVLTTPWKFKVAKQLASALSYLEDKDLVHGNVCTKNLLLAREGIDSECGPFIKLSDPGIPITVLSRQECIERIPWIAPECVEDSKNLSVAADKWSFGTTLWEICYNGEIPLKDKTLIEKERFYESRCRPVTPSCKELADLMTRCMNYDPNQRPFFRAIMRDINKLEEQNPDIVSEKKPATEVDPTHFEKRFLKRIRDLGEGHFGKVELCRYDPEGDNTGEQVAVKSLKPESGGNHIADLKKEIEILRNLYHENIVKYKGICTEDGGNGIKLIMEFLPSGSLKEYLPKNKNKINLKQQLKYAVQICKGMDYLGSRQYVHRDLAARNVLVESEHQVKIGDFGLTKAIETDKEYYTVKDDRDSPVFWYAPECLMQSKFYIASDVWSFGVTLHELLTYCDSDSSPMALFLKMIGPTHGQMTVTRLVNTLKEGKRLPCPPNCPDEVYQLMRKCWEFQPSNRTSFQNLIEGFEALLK
Summary of the method: as §1

[4] = target: T4, 380 human recombinant protein kinases (Homo sapiens, UniProt P00533); conditions: EGFR(h), read-out: Inhibition rate
T4 construct: purchased Eurofins (Celle Lévescault)
T4 sequence (P00533 25-1210): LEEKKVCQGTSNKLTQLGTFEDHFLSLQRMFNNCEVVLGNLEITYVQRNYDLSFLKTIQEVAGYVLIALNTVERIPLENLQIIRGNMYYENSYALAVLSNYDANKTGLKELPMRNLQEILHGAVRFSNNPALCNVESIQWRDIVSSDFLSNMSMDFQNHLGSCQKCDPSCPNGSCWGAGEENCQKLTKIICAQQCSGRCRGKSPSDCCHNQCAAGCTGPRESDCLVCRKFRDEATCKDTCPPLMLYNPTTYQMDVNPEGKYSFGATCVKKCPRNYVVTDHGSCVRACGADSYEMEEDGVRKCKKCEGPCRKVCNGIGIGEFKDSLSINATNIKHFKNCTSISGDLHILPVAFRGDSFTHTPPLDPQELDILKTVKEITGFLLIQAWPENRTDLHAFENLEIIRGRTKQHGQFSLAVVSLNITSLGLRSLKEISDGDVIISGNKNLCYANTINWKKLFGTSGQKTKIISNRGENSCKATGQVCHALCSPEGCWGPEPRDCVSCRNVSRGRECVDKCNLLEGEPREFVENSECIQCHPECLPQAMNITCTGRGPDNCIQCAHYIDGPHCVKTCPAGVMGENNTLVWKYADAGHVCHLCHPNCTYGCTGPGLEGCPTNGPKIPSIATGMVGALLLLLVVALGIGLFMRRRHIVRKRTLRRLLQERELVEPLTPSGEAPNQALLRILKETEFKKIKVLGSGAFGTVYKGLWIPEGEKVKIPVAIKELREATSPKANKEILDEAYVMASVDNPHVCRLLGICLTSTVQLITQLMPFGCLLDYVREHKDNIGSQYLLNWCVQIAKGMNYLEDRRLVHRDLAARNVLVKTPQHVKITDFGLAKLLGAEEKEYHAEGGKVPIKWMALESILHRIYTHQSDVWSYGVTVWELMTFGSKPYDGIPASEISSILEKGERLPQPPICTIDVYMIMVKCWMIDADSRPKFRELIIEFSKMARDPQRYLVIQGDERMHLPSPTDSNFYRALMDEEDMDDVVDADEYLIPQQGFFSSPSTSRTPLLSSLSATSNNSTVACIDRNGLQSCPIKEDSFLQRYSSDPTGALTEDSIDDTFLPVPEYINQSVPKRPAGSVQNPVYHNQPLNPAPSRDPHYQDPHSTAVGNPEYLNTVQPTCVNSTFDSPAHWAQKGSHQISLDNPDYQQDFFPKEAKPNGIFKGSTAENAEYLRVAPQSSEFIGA
Summary of the method: as §1

[5] = target: T5, 380 human recombinant protein kinases (Homo sapiens, UniProt P43250); conditions: GRK6(h), read-out: Inhibition rate
T5 construct: purchased Eurofins (Celle Lévescault)
T5 sequence (P43250 whole entry): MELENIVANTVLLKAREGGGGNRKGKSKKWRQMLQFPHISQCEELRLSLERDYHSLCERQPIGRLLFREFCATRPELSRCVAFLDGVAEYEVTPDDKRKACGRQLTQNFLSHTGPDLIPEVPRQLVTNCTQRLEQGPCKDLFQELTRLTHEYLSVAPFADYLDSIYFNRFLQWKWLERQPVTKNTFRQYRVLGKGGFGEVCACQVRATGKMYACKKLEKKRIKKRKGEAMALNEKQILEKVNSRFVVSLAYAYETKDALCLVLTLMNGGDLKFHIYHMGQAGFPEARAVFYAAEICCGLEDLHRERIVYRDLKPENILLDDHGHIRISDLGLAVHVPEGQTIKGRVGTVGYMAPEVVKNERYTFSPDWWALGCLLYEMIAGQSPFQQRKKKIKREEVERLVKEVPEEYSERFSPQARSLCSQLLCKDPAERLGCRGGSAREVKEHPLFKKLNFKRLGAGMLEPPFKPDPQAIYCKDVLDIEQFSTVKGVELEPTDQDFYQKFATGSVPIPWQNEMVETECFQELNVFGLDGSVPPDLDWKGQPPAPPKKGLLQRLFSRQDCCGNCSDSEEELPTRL
Summary of the method: as §1

[6] = target: T6, 380 human recombinant protein kinases (Homo sapiens, UniProt O00506); conditions: STK25(h), read-out: Inhibition rate (%)
T6 construct: purchased Eurofins (Celle Lévescault)
T6 sequence (O00506 whole entry): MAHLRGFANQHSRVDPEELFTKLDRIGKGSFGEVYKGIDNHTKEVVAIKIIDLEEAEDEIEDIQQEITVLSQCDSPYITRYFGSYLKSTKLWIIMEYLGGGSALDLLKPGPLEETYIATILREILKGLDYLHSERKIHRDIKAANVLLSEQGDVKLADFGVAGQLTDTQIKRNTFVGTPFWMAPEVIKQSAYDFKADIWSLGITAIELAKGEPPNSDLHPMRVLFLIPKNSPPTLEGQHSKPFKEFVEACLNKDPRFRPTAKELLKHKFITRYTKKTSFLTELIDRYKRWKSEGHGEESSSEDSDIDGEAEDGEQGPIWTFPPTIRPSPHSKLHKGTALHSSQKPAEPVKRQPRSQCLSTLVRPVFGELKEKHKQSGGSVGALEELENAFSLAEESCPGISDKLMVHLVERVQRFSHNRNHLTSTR
Summary of the method: as §1

[7] = target: T7, 380 human recombinant protein kinases (Homo sapiens, UniProt Q06187); conditions: BTK(h), read-out: Inhibition rate
T7 construct: purchased Eurofins (Celle Lévescault)
Summary of the method: as §1

[8] = target: T8, 380 human recombinant protein kinases (Homo sapiens, UniProt P52564); conditions: MKK6(h), read-out: Inhibition rate
T8 construct: purchased Eurofins (Celle Lévescault)
T8 sequence (P52564 1-334): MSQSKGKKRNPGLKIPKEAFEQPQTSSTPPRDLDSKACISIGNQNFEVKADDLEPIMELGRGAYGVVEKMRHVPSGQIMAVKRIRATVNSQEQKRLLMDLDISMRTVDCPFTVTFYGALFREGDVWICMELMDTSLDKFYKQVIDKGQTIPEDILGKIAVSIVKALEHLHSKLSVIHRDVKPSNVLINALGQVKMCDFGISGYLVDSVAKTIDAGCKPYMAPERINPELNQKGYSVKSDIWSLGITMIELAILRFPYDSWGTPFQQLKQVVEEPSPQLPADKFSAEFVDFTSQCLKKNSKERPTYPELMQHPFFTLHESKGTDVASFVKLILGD
Summary of the method: as §1

[9] = target: T9, 380 human recombinant protein kinases (Homo sapiens, UniProt Q5MAI5); conditions: CDKL4(h), read-out: Inhibition rate
T9 construct: purchased Eurofins (Celle Lévescault)
T9 sequence (Q5MAI5 whole entry): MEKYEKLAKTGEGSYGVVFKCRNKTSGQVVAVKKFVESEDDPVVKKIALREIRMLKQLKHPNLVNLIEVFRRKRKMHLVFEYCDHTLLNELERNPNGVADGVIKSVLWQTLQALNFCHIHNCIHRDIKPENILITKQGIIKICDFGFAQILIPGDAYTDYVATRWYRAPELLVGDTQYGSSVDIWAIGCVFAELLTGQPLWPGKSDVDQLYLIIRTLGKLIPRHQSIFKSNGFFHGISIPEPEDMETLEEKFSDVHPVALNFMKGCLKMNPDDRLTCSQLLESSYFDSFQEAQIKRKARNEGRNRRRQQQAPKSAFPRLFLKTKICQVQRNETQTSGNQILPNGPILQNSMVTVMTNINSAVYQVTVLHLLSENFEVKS
Summary of the method: as §1

[10] = target: T10, 380 human recombinant protein kinases (Homo sapiens, UniProt P08069); conditions: IGF-1R(h), read-out: Inhibition rate
T10 construct: purchased Eurofins (Celle Lévescault)
T10 sequence (P08069 31-1367): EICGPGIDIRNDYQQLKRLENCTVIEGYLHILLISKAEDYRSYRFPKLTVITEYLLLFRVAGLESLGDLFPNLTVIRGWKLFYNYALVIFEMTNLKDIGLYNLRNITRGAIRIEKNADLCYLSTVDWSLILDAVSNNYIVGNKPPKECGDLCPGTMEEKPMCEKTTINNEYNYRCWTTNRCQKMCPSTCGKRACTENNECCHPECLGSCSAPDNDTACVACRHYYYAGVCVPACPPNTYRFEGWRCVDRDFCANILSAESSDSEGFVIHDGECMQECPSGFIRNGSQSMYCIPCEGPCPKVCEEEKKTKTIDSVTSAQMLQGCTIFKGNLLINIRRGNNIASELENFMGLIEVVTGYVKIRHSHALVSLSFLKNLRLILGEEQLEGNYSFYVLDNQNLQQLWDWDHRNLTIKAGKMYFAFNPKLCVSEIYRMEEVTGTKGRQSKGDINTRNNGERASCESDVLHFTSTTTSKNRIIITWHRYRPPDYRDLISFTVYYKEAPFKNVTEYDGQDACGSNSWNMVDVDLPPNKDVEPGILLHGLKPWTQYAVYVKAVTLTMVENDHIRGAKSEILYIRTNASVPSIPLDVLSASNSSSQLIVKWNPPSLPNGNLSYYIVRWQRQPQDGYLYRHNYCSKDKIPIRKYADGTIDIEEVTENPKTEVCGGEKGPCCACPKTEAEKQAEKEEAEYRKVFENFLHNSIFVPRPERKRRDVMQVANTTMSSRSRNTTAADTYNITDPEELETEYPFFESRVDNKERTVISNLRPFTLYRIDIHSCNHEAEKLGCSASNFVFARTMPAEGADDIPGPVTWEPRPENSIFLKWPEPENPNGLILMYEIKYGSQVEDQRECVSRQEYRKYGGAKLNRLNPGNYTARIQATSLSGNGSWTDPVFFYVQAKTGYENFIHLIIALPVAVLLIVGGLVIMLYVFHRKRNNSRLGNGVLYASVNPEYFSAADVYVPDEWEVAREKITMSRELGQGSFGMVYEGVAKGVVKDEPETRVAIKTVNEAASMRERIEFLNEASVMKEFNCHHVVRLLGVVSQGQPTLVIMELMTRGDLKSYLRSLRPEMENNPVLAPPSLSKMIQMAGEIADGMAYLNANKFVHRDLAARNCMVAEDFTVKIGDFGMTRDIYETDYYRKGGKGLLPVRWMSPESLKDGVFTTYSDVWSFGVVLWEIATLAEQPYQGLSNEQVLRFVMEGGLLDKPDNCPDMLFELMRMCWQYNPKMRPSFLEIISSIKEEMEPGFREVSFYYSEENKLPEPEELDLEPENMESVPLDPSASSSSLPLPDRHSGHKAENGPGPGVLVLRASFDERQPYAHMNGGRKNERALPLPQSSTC
Summary of the method: as §1

`C=CC(=O)Nc1cc(-c2cc(-c3cc4c([nH]3)CCNC4=O)ccn2)ccc1OC(F)(F)F` [compound 11] showed an inhibition at 0.01 µM ([1]; 10 nM) of -17%, an inhibition at 0.1 µM ([1]; 100 nM) of -12% and an inhibition at 1 µM ([1]; 1000 nM) of 2%. It also gave an inhibition at 0.01 µM ([2]; 10 nM) of 3%, an inhibition at 0.1 µM ([2]; 100 nM) of 16% and an inhibition at 1 µM ([2]; 1000 nM) of 55%. For the same compound, the inhibition at 0.01 µM ([3]; 10 nM) was -6%, the inhibition at 0.1 µM ([3]; 100 nM) was -8% and the inhibition at 1 µM ([3]; 1000 nM) was 1%. For the same compound, the inhibition at 0.01 µM ([4]; 10 nM) was 3%, the inhibition at 0.1 µM ([4]; 100 nM) was -20% and the inhibition at 1 µM ([4]; 1000 nM) was -6%. It also gave an inhibition at 0.01 µM ([5]; 10 nM) of -1%, an inhibition at 0.1 µM ([5]; 100 nM) of -1% and an inhibition at 1 µM ([5]; 1000 nM) of 1%. For the same compound, the inhibition at 0.01 µM ([6]; 10 nM) was -4%, the inhibition at 0.1 µM ([6]; 100 nM) was 1% and the inhibition at 1 µM ([6]; 1000 nM) was 0%. The inhibition at 0.01 µM ([7]; 10 nM) was -4%, the inhibition at 0.1 µM ([7]; 100 nM) was 10% and the inhibition at 1 µM ([7]; 1000 nM) was 17%. The inhibition at 0.01 µM ([8]; 10 nM) was -4%, the inhibition at 0.1 µM ([8]; 100 nM) was -9% and the inhibition at 1 µM ([8]; 1000 nM) was -15%. For the same compound, the inhibition at 0.01 µM ([9]; 10 nM) was 50%, the inhibition at 0.1 µM ([9]; 100 nM) was 83% and the inhibition at 1 µM ([9]; 1000 nM) was 93%. For the same compound, the inhibition at 0.01 µM ([10]; 10 nM) was -3%, the inhibition at 0.1 µM ([10]; 100 nM) was -2% and the inhibition at 1 µM ([10]; 1000 nM) was -14%.
